Results as given in publication PMC9151520 (Archives of Toxicology, 2022).
Values joined by “and” are separate entries in the source; they are usually repeats but may differ in a detail not shown here. Identical values can stand only once. Like-named read-outs stand apart in the source and are kept apart here.

Assays:
[1] = tested on: p53 signaling (p53RE-bla HCT-116 cells)
[2] = tested on: p53 signaling (p53RE-bla HCT-116 cells); remark: listed apart in the source
[3] = tested on: p53 signaling (p53RE-bla HCT-116 cells); assay: cells; type: cell-based
[4] = tested on: p53RE-bla HCT-116 cells
[5] = Homo sapiens, HCT-116, read-out: p53 activation EC50, primary screening
[6] = Homo sapiens, HCT-116, read-out: p53 activation efficacy, primary screening
[7] = read-out: p53 activation EC50, primary screening
[8] = read-out: p53 activation EC50, cherry pick confirmation

Molecule | p53 activation EC50, cherry pick confirmation [1] | p53 activation EC50, primary screening [1] | p53 activation efficacy, cherry pick confirmation [1] | p53 activation efficacy, primary screening [1] | p53 activation EC50, cherry pick confirmation [2] | p53 activation EC50, primary screening [2] | p53 activation efficacy, cherry pick confirmation [2] | p53 activation efficacy, primary screening [2] | p53 activation efficacy, cherry pick confirmation [3] | Viability EC50, cherry pick confirmation [4] | Viability EC50, primary screening [4] | Viability efficacy, cherry pick confirmation [4] | Viability efficacy, primary screening [4] | also measured
O=c1c(O)c(-c2ccc(O)c(O)c2)oc2cc(O)cc(O)c12 [Quercetin] | – | – | – | – | – | – | – | – | – | – | – | – | – | EC50, p53 activation, cherry pick confirmation [1]: inactive; EC50, p53 activation, primary screening [1]: inactive; Efficacy, p53 activation, cherry pick confirmation [1]: inactive; Efficacy, p53 activation, primary screening [1]: inactive; EC50, p53 activation, cherry pick confirmation [2]: inactive; EC50, p53 activation, primary screening [2]: inactive; Efficacy, p53 activation, cherry pick confirmation [2]: inactive; Efficacy, p53 activation, primary screening [2]: inactive; EC50, p53 activation, cherry pick confirmation [3]: inactive; Efficacy, p53 activation, cherry pick confirmation [3]: inactive; EC50 ([3]; Homo sapiens, HCT-116, read-out: EC50, p53 activation, primary screening): 45.8 µM; Emax ([3]; Homo sapiens, HCT-116, read-out: Efficacy, p53 activation, primary screening): 31.7%; EC50, viability, cherry pick confirmation [4]: inactive; EC50, viability, primary screening [4]: inactive; Efficacy, viability, cherry pick confirmation [4]: inactive; Efficacy, viability, primary screening [4]: inactive
Chlorpyrifos oxon | – | – | – | – | – | – | – | – | – | – | – | – | – | EC50 [1]: 0.02 µM; p53 activation efficacy [1]: 33.1727 and 49.6483; p53 activation EC50 [2]: inactive; EC50 ([2]; read-out: p53 activation EC50): 2.91 µM; p53 activation EC50 [3]: inactive; p53 activation efficacy [3]: inactive; Viability EC50 [4]: inactive; Viability efficacy [4]: inactive
Cc1cccc2sc3nncn3c12 [2,7,8,9-Tricyclazole] | – | – | – | – | – | – | – | – | – | – | – | – | – | p53 activation EC50 [1]: inactive; p53 activation EC50 [2]: inactive; p53 activation EC50 [3]: inactive; p53 activation efficacy [3]: inactive; Viability EC50 [4]: inactive; Viability efficacy [4]: inactive
O=C(NC(=O)c1c(F)cccc1F)Nc1cc(Cl)c(Oc2ncc(C(F)(F)F)cc2Cl)c(Cl)c1 [Chlorfluazuron] | inactive | inactive | inactive | inactive | inactive | inactive | inactive | inactive | inactive | inactive | inactive | inactive | inactive | p53 activation EC50, cherry pick confirmation [3]: inactive; EC50 [3, 5]: 31.4 µM; Emax [3, 6]: 80.6%
COc1ccc(C(=O)/C(Br)=C\C(=O)[O-])cc1.[Na+] [Cytembena] | inactive | inactive | inactive | inactive | inactive | inactive | inactive | inactive | inactive | inactive | inactive | – | inactive | p53 activation EC50, cherry pick confirmation [3]: inactive; p53 activation efficacy, primary screening [3]: 55.202; EC50 [3, 7]: 21 µM; EC50 ([4]; read-out: Viability EC50, cherry pick confirmation): 43.2 µM
CCN(CC)C(=O)C(Cl)=C(C)OP(=O)(OC)OC [Phosphamidon] | – | – | – | – | – | – | – | – | – | – | – | – | – | EC50 [1]: 3.22 µM; EC50 ([1]; read-out: p53 activation EC50, RLM): 2.35 µM and 3.43 µM; p53 activation EC50, HLM [2]: inactive; EC50 ([2]; read-out: p53 activation EC50, HLM): 5.82 µM; p53 activation EC50, No MS [3]: inactive; p53 activation Efficacy, No MS [3]: inactive; Viability EC50, HLM [4]: inactive; Viability EC50, No MS [4]: inactive; Viability EC50, RLM [4]: inactive; Viability Efficacy, No MS [4]: inactive
O=c1n(CC2CO2)c(=O)n(CC2CO2)c(=O)n1CC1CO1 (centres unmarked) [Tris(2,3-epoxypropyl)isocyanurate] | inactive | inactive | inactive | inactive | inactive | inactive | inactive | inactive | 90.7567 | inactive | inactive | inactive | inactive | p53 activation efficacy, primary screening [3]: 99.0367; EC50 [3, 8]: 27.9 µM; EC50 [3, 7]: 23.7 µM
C[C@H]1CCCC(=O)CCC/C=C/c2cc(O)cc(O)c2C(=O)O1 [Zearalenone] | inactive | inactive | inactive | inactive | inactive | inactive | inactive | inactive | inactive | inactive | inactive | inactive | inactive | p53 activation EC50, cherry pick confirmation [3]: inactive; EC50 [3, 5]: 16.8 µM; Emax [3, 6]: 49.2%
O=[Se](O)O [Selenious acid] | – | – | – | – | – | – | – | – | – | – | – | – | – | EC50, p53 activation, cherry pick confirmation [1]: inactive; EC50, p53 activation, primary screening [1]: inactive; Efficacy, p53 activation, cherry pick confirmation [1]: inactive; Efficacy, p53 activation, primary screening [1]: inactive; EC50, p53 activation, cherry pick confirmation [2]: inactive; EC50, p53 activation, primary screening [2]: inactive; Efficacy, p53 activation, cherry pick confirmation [2]: inactive; Efficacy, p53 activation, primary screening [2]: inactive; EC50, p53 activation, cherry pick confirmation [3]: inactive; Efficacy, p53 activation, cherry pick confirmation [3]: inactive; Efficacy, p53 activation, primary screening [3]: 32.672; EC50 ([3]; read-out: EC50, p53 activation, primary screening): 45.1 µM; EC50, viability, cherry pick confirmation [4]: inactive; EC50, viability, primary screening [4]: inactive; EC50 ([4]; read-out: EC50, viability, cherry pick confirmation): 25.8 µM; EC50 ([4]; read-out: EC50, viability, primary screening): 42.9 µM
CC[C@@]1(O)C(=O)OCc2c1cc1n(c2=O)Cc2c-1nc1ccccc1c2/C=N/OC(C)(C)C [Gimatecan] | inactive | inactive | inactive | inactive | inactive | inactive | inactive | inactive | – | inactive | inactive | inactive | inactive | EC50 ([3]; Homo sapiens, HCT-116, read-out: p53 activation EC50, cherry pick confirmation): 0.345 µM; EC50 [3, 5]: 0.118 µM; Emax ([3]; Homo sapiens, HCT-116, read-out: p53 activation efficacy, cherry pick confirmation): 257%; Emax [3, 6]: 118%
Nc1ncn([C@@H]2O[C@H](CO)[C@@H](O)[C@H]2O)c(=O)n1 [5-Azacytidine] | inactive | inactive | inactive | inactive | inactive | inactive | inactive | inactive | 71.649 | inactive | inactive | inactive | inactive | p53 activation efficacy, primary screening [3]: 59.244; EC50 [3, 8]: 17.7 µM; EC50 [3, 7]: 11.2 µM
